Literature values as cited in patent publication US20030149013A1, “Methods of treating bacterial infections in dogs and cats” (priority 2001, published 2003).
Where two headings read alike, the source gives them in different places.

Tests used:
[1] = dog

Row | Canine t1/2 ([1]; IM (intramuscular)) | Rat t1/2 (IM (intramuscular)) | SMILES | Canine t1/2 ([1]; PO (per os)) | Rat t1/2 (PO (per os))
1 |  |  | CC1=C(C(=O)O)N2C(=O)[C@@H](NC(=O)[C@H](N)C3=CCC=CC3)[C@H]2SC1 [Cephadrine] | 3.64 (P0) h | 0.82 (PO) h
2 | 0.97 (IM) h | 0.5 (IM) h | O=C(Cc1cccs1)N[C@@H]1C(=O)N2C(C(=O)[O-])=C(C[n+]3ccccc3)CS[C@H]12 [Cephalordine] |  | 
